The record followed here is paper PMC4640567, “Cinnamic Acid Bornyl Ester Derivatives from Valeriana wallichii Exhibit Antileishmanial In Vivo Activity in Leishmania major-Infected BALB/c Mice” (PLoS ONE, 2015).

The test system of data set [1] is L. major. Put plainly: In vivo antileishmanial activity in L. major-infected BALB/c mice. Here is the method:
Female BALB/c mice (11 per group; three groups in total) were infected with 2 × 10^5 L. major promastigotes in 30 μL phosphate-buffered saline (PBS) into the right hind footpad under isoflurane inhalation anaesthesia using the UniVet Porta system (Groppler, Deggendorf, Germany). The clinical manifestation of L. major infection was monitored twice a week by determination of the body weight (g) and footpad size (mm) of the infected (iFP) and the non-infected footpad (niFP) serving as negative control. The footpad swelling describes the difference in mm between the iFP and niFP of individual mice. Three weeks post infection (p.i.) the mice were randomly divided into three groups of 11 for different treatment regimens. On day 21, 25, and 28 p.i. the respective groups were either left untreated, treated intraperitoneally (i.p.) with 100 μl of solvent (infected, 50% DMSO/PBS) or 100 μl 50 mg/kg/day of compound 2 in 50% DMSO/PBS. This high dose of compound 2 was chosen to identify its antileishmanial in vivo efficacy in L. major-infected BALB/c mice. The close monitoring of body weight and footpad swelling was continued until the end of experiment. On day 35 p.i. mice were sacrificed by CO2 inhalation and single cell suspensions from the iFP, draining popliteal lymph nodes (pLN) and spleens were obtained. The parasite burden was determined by limiting dilution assays as described previously. It was not necessary to apply any analgesics or anaesthetics during the animal trials.

Data set [2] has as its system L. donovani promastigotes. As to the kind of experiment: MTT assay, L. donovani (AG83) promastigotes. It is filed as cell-based. Particulars: Leishmania donovani, tested at 10, 50, 100 μM, read-out: Cytotoxicity (μM) L. donovani promastigotes (IC50). As for the experimental part:
L. donovani promastigotes (strain: MHOM/IN/1983/AG83) were obtained from the Indian Institute of Chemical Biology, Kolkata, India. Promastigotes were cultured in Schneider’s insect medium (Sigma-Aldrich Co., St. Louis, USA) as described elsewhere.
Antiparasitic activities of compounds 1 and 2 dissolved in dimethyl sulfoxide (DMSO, E. Merck, India) against L. donovani (AG83) promastigotes were determined by a quantitative colorimetric assay using the 3-(4, 5- dimethylthiazol-2-yl)-2, 5-diphenyl tetrazolium bromide (MTT) (Sisco Research Laboratory, Mumbai, India) test as described elsewhere. The compounds were tested at concentrations of 10 μM, 50 μM, and 100 μM and IC50 values (concentration of compound, which inhibited at least 50% cell metabolic activity) for each compound were determined from respective dose–response curves using Origin 5.0 software (Microcal Software, Inc., Northampton, MA, USA).
On the technique in general: Tetrazolium assays rely on reduction of a dye to a coloured formazan, in cell work by metabolically active cells.

Data set [3] deals with L. major promastigotes. As to the kind of experiment: MitoTracker Red CMXRos staining, flow cytometry. As to conditions: 100 μM. It is filed as cell-based, Leishmania major. Here is the method: L. major promastigotes were harvested from blood-agar cultures and washed twice with DPBS (900 × g for 5 min at RT). 2 × 10^6 promastigotes were dissolved in 180 μl RPMI complete medium and seeded in a 96 well plate. Parasites were incubated with 20 μL of compound 1 (final concentration: 100 μM), compound 2 (final concentration: 100 μM) and with 20 μL of DMSO, respectively, for 30 min, 45 min, 60 min, or 120 min at 27°C in a 5% CO2. After incubation 2 μl of MitoTracker Red CMXRos (final concentration: […]) (Life Technologies, Darmstadt, Germany) was added for 15 min at 27°C. Samples were directly acquired using a MACSQuant Analyzer (Miltenyi Biotech, Bergisch Gladbach, Germany) and MitoTracker-positive parasites were analyzed using MACS Quant Analyzing software.
(A flow cytometer gives signals particle by particle.)

Data set [4] is described as follows: AlamarBlue cytotoxicity, HepG2 cells. It is filed as cell-based. Particulars: human, read-out: Cytotoxicity (μM) HEP G2. Here is the method: BMDM were generated in complete RPMI medium as described previously. On day six, the cytotoxicity against 2 × 10^5 cells/ml was tested at increasing concentrations of compounds 1 and 2 for 48 h. Human embryonic kidney HEK 293 T cells (ATCC, Wesel, Germany) were cultured in Dulbecco´s Modified Eagle Medium (DMEM) (Life Technologies, Darmstadt, Germany), with 10% FCS (PAA Laboratories, Germany). According to the standard operating procedures (SOP) within the Collaborative Research Center 630 (SFB 630) 2 × 10^4 HEK 293 T cells/ml were tested at increasing concentrations of compounds 1 and 2 for 48 h. Human liver carcinoma HepG2 cells (ATCC) were cultured in RPMI medium (Gibco) with 10% FCS. 1 × 10^5 cells/ml HepG2 were tested at increasing concentrations of 1 and 2 for 72 h according to the SOPs. The AlamarBlue assay was performed as described above for L. major parasites.
(In general: Resazurin is reduced to fluorescent resorufin, in cell work by metabolically active cells.)

For data set [5], the system named is L. donovani. Put plainly: Preliminary studies in L. donovani infected BALB/c mice. It is filed as in vivo. As to conditions: need further evaluation.
[6] abbreviates: 50 mg/kg/day i.p. days 21, 25, 28, day 35 p.i.

Structures are written as SMILES. Some results are limits rather than exact numbers.

With `CC1(C)C2CCC1(C)C(OC(=O)CCc1ccccc1)C2` (single isomer, unassigned; (-)) [Compound 2, (-)-bornyl 3-phenylpropionate], the “Side effects in vivo” value in data set [1] (50 mg/kg/day i.p. days 21, 25, 28) is recorded as “did not have any strong side effects”. Also, in data set [1] (setting [6]), the “Parasite burden in the spleen (LDA)” value is recorded as “only numerically reduced”, the “Reduction of parasite burden within the infected footpads (LDA)” value is listed as ~ 100 fold and the “Reduction of parasite burden within the popliteal lymph nodes (LDA)” value is recorded as ~ 10.000 fold. Also, in data set [1] (50 mg/kg/day i.p. on days 21, 25, 28 p.i., during the treatment regimen), the “Body weight of infected mice” value is “not affected”. In data set [1] (50 mg/kg/day i.p. on days 21, 25, 28 p.i., vs untreated or solvent control-treated mice), the “Footpad swelling (difference between infected and non-infected footpad)” value was “reduced footpad swelling”. Moreover, the IC50 in data set [2] was > 100 µM. Moreover, the “MitoTracker-positive cells, percentage of DMSO control (100%)” value in data set [3] (60 min) stood at 75.2%. The “MitoTracker-positive cells, percentage of DMSO control (100%)” value in data set [3] (120 min) is 60.2%. Also, in data set [4], the IC50 at 72 h was > 100 µM. In addition, the “Antileishmanial in vivo activity” value in data set [5] is “promising antileishmanial in vivo activities”.

With `CC1(C)C2CCC1(C)C(OC(=O)C=Cc1ccccc1)C2` (single isomer, unassigned; (-)) [Compound 1, (-)-Bornyl cinnamate], the IC50 in data set [2] is 15.6 µM. In addition, the “MitoTracker-positive cells, percentage of DMSO control (100%)” value in data set [3] (60 min) is 75%; in data set [3] (120 min), 63%. For the same compound, the IC50 at 72 h in data set [4] was > 100 µM. The “Antileishmanial in vivo activity” value in data set [5] was “promising antileishmanial in vivo activities”.
